Experiments:
Prothrombin = Prothrombin (Homo sapiens, UniProt P00734); assay: Binding affinity to thrombin
Coagulation factor VII = biological target: T1, Coagulation factor VII (Homo sapiens, UniProt P08709); assay: Binding affinity to f7a
T1 sequence (P08709 whole entry): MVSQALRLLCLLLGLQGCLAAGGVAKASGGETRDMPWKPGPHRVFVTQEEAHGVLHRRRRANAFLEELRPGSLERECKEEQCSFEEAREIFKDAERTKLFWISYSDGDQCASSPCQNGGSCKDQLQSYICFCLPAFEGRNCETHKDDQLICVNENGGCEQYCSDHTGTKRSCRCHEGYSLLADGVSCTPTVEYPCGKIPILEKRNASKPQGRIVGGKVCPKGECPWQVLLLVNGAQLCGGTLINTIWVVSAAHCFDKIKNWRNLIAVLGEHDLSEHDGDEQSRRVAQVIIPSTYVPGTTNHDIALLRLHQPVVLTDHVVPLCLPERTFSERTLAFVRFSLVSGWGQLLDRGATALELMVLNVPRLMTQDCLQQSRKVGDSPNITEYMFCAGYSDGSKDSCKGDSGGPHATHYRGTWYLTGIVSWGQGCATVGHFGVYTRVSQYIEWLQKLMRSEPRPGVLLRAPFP

Coagulation factor X = Coagulation factor X (Homo sapiens, UniProt P00742); assay: Binding affinity to f10a
Trypsin = Trypsin (Homo sapiens, UniProt P07477+P07478+P35030); assay: Binding affinity to trypsin; format: protein assay
Homo sapiens = species: Homo sapiens; assay: Selectivity for f7a over trypsin

Sequence of Coagulation factor X (P00742 41-179 limits assumed): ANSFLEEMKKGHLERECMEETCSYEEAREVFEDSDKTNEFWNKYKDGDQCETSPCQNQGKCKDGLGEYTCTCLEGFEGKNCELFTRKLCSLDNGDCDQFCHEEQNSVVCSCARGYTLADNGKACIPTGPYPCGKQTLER
Sequence of Coagulation factor X (P00742 235-488 limits assumed): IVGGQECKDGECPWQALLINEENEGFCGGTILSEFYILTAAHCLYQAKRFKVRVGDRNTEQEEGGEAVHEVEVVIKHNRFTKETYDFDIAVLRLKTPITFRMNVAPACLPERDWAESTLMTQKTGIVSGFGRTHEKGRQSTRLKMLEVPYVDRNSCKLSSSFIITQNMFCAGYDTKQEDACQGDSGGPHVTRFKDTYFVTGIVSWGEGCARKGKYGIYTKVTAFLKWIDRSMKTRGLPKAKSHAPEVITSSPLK

Row | SMILES | Ki (Prothrombin) [µM] | Ki (Coagulation factor VII) [µM] | Ki (Coagulation factor X) [µM] | Ki (Trypsin) [µM] | Selectivity ratio (Homo sapiens)
1 | N=C(N)c1ccc2[nH]c(-c3cc(CC(=O)O)cc(-c4cccc([N+](=O)[O-])c4)c3O)cc2c1 | 2.9 | 0.004 | 0.05 | 0.4 | 
2 | Nc1ccc2[nH]c(-c3cc(CC(=O)O)cc(-c4cccc([N+](=O)[O-])c4)c3O)cc2n1 | 44 |  | 3.5 | 120 | 400
3 | NC(=O)Nc1cccc(-c2cc(CC(=O)O)cc(-c3cc4[nH]c(N)ccc-4n3)c2O)c1 |  | 12 |  |  | > 13
4 | N=C(N)c1ccc2[nH]c(-c3cc(CC(=O)O)cc(-c4cccc([N+](=O)[O-])c4)c3O)nc2c1 | > 150 |  | 0.32 | 11 | 
5 | CN(C)CCNC(=O)NCc1cccc(-c2cc(CC(=O)O)cc(-c3cc4[nH]c(N)ccc-4n3)c2O)c1 |  | 1.4 |  |  | > 100
6 | Nc1ccc2[nH]c(-c3cc(CC(=O)O)cc(-c4cccc(O)c4)c3O)cc2n1 |  | 2.5 |  |  | 84
7 | Nc1ccc2[nH]c(-c3cc(CC(=O)O)cc(-c4cccc(CNC(=O)Nc5ccccc5)c4)c3O)cc2n1 |  | 0.02 |  |  | > 7000
8 | Nc1ccc2[nH]c(-c3cc(CC(=O)O)cc(-c4cccc([N+](=O)[O-])c4)c3O)nc2n1 | > 150 | 39 | > 150 | > 150 | 
9 | O=C(O)Cc1cc(-c2cccc([N+](=O)[O-])c2)c(O)c(-c2nc3ccccc3[nH]2)c1 | > 150 | 11 | > 150 | > 150 | 
10 | CS(=O)(=O)c1cccc(-c2cc(CC(=O)O)cc(-c3cc4[nH]c(N)ccc-4n3)c2O)c1 |  | 7.4 |  |  | 16
11 | Nc1ccc2[nH]c(-c3cc(CC(=O)O)cc(-c4ccccc4)c3O)cc2n1 |  | 2.4 |  |  | 67

Source: ChEMBL document CHEMBL1146971, “Discovery of novel heterocyclic factor VIIa inhibitors” (Bioorg Med Chem Lett, 2006)
